From article PMC12586598, “A novel long-acting C5a-blocking cyclic peptide prevents sepsis-induced organ dysfunction via effective blockade of the inflammatory cascade” (Signal Transduction and Targeted Therapy, 2025)
Where a SMILES comes first, the peptide text is derived from it.

Tests used:
C5a-C5aR1 = target: T1, C5a-C5aR1 (Homo sapiens, UniProt P01031); test: Validation of Cp1-specific blockade of C5a-C5aR1 by flow cytometry on PMNs; format: cell-based; settings: resting and TNF-α activated PMNs, Cy5-C5a
T1 construct: 10 ng of Cy5-labeled human C5a (MCE, Shanghai, China); purchased MCE; host or cells: PMNs from Oribiotech Co., Ltd. (endogenous receptor)
T1 sequence (P01031 678-751): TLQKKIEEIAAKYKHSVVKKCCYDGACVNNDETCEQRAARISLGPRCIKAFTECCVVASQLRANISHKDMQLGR
Method: To validate the Cp1-specific blockade of C5a-C5aR1. PMNs isolated by flow cytometric sorting from Oribiotech Co., Ltd. (Shanghai, China) were preincubated with C5aR1-antibody (5 μg), C5aR2-antibody (5 μg), Cp1 (10 μg), Cp1 (10 μg)+C5aR1-antibody (5 μg) or Cp1 (10 μg)+C5aR2-antibody (5 μg) at room temperature for 0.5 h, followed by incubation with 10 ng of Cy5-labeled human C5a (MCE, Shanghai, China) at 4 °C for 0.5 h in the dark. The samples were subsequently centrifuged, washed with PBS and detected via flow cytometry. PMNs were stimulated with 10 ng/mL TNF-α for 12 hours to perform competitive binding assays under activated conditions.

[1] = target: T2, Cy5-labeled mouse C5a protein (Mus musculus, UniProt P06684); test: Competitive binding assay by FCM (Cy5-C5a on mouse neutrophils); format: cell-based; settings: high (1 μg/mL) or low (10 ng/mL) concentrations
T2 construct: 10 ng of Cy5-labeled mouse C5a protein (MCE, Shanghai, China); purchased MCE; host or cells: mouse peripheral blood neutrophils (endogenous receptor)
T2 sequence (P06684 679-755): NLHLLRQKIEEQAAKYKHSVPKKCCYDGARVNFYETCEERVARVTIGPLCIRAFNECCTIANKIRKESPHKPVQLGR
Method: For the validation of peptide affinity for C5a. Peripheral blood neutrophils from the mice were isolated via density gradient centrifugation (Solarbio P9201, Beijing, China). A total of 10 ng of Cy5-labeled mouse C5a protein (MCE, Shanghai, China) was preincubated with linear peptides or cyclic peptides (10 or 100 ng) at room temperature for 0.5 h. Subsequently, 2×10^5 mouse neutrophils were incubated with Cy5-labeled mouse C5a or Cy5-labeled mouse C5a/peptide complexes at 4 °C for 0.5 h in the dark, followed by centrifugation, washing with PBS and flow cytometric analysis (Sony ID7000™, Japan).

mouse C5a-desArg = target: T3, mouse C5a-desArg (Mus musculus, UniProt P06684); test: SPR binding affinity assay, immobilized mouse C5a-desArg
T3 construct: mouse C5a-desArg (MCE, Shanghai, China); purchased MCE
T3 sequence (P06684 679-754 limits assumed): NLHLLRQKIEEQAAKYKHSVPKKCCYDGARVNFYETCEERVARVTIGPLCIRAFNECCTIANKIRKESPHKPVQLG
Method: (§1) Surface plasmon resonance (SPR) analysis was conducted using Biacore 2000 system (GE Healthcare, Germany) at 37°C in running buffer (20 mM Tris-HCl, pH 7.4, 150 mM NaCl, 5 mM KCl, 1 mM MgCl₂, 1 mM CaCl₂). The CM5 sensor chips (GE Healthcare) were activated with NHS/EDC, followed by immobilization of mouse C5a (ACROBiosystems, Beijing, China), human C5a (ACROBiosystems, Beijing, China), mouse C5 (ACROBiosystems, Beijing, China) or mouse C5a-desArg (MCE, Shanghai, China). The peptide-protein interactions were characterized using a concentration-gradient approach (low to high) with a continuous flow rate of 30 μL/min (150 s injection duration). Between analyte concentrations, the sensor surface was regenerated with 10 mM glycine-HCl (pH 2.0; 5 min treatment). Binding and dissociation constants were obtained by globally fitting the data to a 1:1 Langmuir binding model using a Biacore Insight evaluation software (Cytiva, USA).

mouse C5a [2] = target: T4, mouse C5a (Mus musculus, UniProt P06684); test: SPR binding affinity assay, immobilized mouse C5a; parameters: immobilization of mouse C5a (ACROBiosystems, Beijing, China); purchased ACROBiosystems
T4 sequence (P06684 679-755 limits assumed): T2 sequence (P06684 679-755)
Method: as §1

[3] = mouse, 24 h
Description: The peptides in the plasma were extracted with 15% TFA and quantified via reversed-phase high-performance liquid chromatography (HPLC) (Agilent 1260, USA).

CLP-induced septic mice = test: Inflammatory factors and chemokines in PLF, Luminex, CLP mice; format: in vivo, mouse
Method: Twenty-four hours later, whole blood and PLF were collected under anesthesia. The plasma and PLF supernatants were further isolated via centrifugation (3000 × g, 10 min, 4 °C) and subjected to inflammatory factor and chemokine profiling via the Luminex® multiplex […] Biotechnologies, Shanghai, China). The percent inhibition was calculated relative to that of the sham group (set as 0%).

CLP model mice = test: cfDNA and neutrophil elastase in plasma of CLP mice; format: in vivo, mouse; settings: 100 μg/20 g, 24 h after CLP surgery, relative to Sham set as 0%
Method: To determine the levels of cfDNA and elastase in plasma, blood samples were collected, and plasma was prepared 24 h after CLP surgery. cfDNA was extracted via the VAHTS Serum/Plasma Circulating DNA Kit (Vazyme, Nanjing) and quantified via qPCR. Elastase was quantified via an NE ELISA Kit (Cusabio, Wuhan).

mouse C5a [4] = target: T4, mouse C5a; test: Plasma C5a/C5 ratio by ELISA after Cp1; format: in vivo; settings: 100 μg/20 g, normal mice or CLP model mice
Description: We evaluated the in vivo neutralization of Cp1 against C5a by measuring the plasma C5a/C5 ratio in normal mice or CLP model mice.

[5] = 100 μg/20 g, 24 h after CLP, relative to Sham set as 0%

## CSCC[C@@H]1NC(=O)[C@@H]2CCCN2C(=O)[C@H](CCSC)NC(=O)[C@H](CO)NC(=O)[C@H](Cc2c[nH]cn2)NC(=O)CNC(=O)[C@H](CO)NC(=O)[C@H](Cc2ccccc2)NC(=O)[C@H](CCCNC(=N)N)NC(=O)[C@H](CCC(=O)O)NC(=O)[C@H](Cc2ccccc2)NC(=O)[C@H](C(C)C)NC1=O [Cp1] (cyclo(HSMPMVFERFSG))
C5a-C5aR1
  specificity of blocking the C5a-C5aR1 axis: selective blockade of the C5a‒C5aR1 interaction
[1]
  blockade of Cy5-C5a binding to mouse neutrophils: validated the blocking efficacy
Mouse C5a-desArg; pH 7.4, read-out: Ka vs mC5a-desArg (SPR)
  kon: 2490 M⁻¹ s⁻¹
Mouse C5a-desArg; read-out: Kd (dissociation rate) vs mC5a-desArg (SPR)
  koff: 0.0089 s⁻¹
Mouse C5a [2]; pH 7.4, read-out: Ka vs mC5a (SPR)
  kon: 63800 M⁻¹ s⁻¹
Mouse C5a [2]; read-out: Kd (dissociation rate) vs mC5a (SPR)
  koff: 0.359 s⁻¹
[3]
  stability in normal plasma: comparable stabilities
CLP-induced septic mice; [5]
  decrease of CCL2 in PLF: 96%
  decrease of CCL3 in PLF: 87%
  decrease of CCL5 in PLF: 89%
  decrease of CCL7 in PLF: 69%
  decrease of CCL12 in PLF: 90%
  decrease of CXCL1 in PLF: 75%
  decrease of CXCL5 in PLF: 94%
  decrease of IL-1β in PLF: 62%
  decrease of IL-6 in PLF: 73%
  decrease of TNF-α in PLF: 77%
CLP-induced septic mice; 300 μg of Cp1
  expression of inflammatory factors and chemokines in PLF, high dose: effectively suppressed
CLP-induced septic mice; CLP-induced septic mice, first of four 'corresponding' values
  attenuation of IL-6 in PLF: 3.7 fold
CLP-induced septic mice; CLP-induced septic mice, fourth of four 'corresponding' values
  attenuation of CXCL1 in PLF: 4.3 fold
CLP-induced septic mice; CLP-induced septic mice, third of four 'corresponding' values
  attenuation of CCL2 in PLF: 25 fold
CLP model mice; ELISA
  decrease of plasma neutrophil elastase (NE): 100%
CLP model mice; qPCR
  decrease of plasma cfDNA: 68%
Mouse C5a [4]
  plasma C5a/C5 ratio: decreased ratio of C5a/C5
